Assay results taken from patent US20240299321A1, “METHODS TO SENSITIZE CANCER CELLS AND STANDARDIZED SCREENING ASSAY FOR IMMUNOTHERAPY” (THE TRUSTEES OF INDIANA UNIVERSITY, priority 2020, published 2024).

Experiments:
[1] = test system: EO771 tumors; assay: EO771 orthotopic breast tumor model in immunocompetent C57BL/6 mice; format: in vivo; conditions: 20 mg kg-1 intraperitoneal, 3 times/week for 2 weeks
Description: T cell effector function analysis: We measured cytokine and cytolytic granule production (IFNγ, GZMB and TNFα) of CD8+ T cells from mouse tumor samples and tumor organoid-T cell co-culture. Briefly, CD8+ T cells were placed into the 24-well plate at 1×10^6 cells/well, stimulated with 1 μM ionomycin and 50 ng ml-1 phorbol 12-myristate 13-acetate (PMA) (Sigma-Aldrich) for 4 h, in the presence of 5 μg ml-1 Brefeldin A (BFA), with the purpose to amplify the expression of intracellular cytokines61. The cells were stained with APC/Cy7-conjugated anti-CD8a (Biolegend) for 15 min and then fixed by 4% PFA. After washing, cells were stained with PerCP/Cy7-conjugated anti-GZMB, APC-conjugated anti-IFNγ and PE-conjugated anti-TNFα (Biolegend) for 15 min. In flow cytometric analyses, T cells stained with isotype control antibodies were used as negative controls for gating the cytokine or granule-producing cells. For T cells from tumor organoid-T cell co-culture, tumor organoids were first digested into single cells with TrypLE Express at 37° C. before APC/Cy7-conjugated anti-CD8a staining. In the IFNγ and TNFα secretion assay (Biolegend), T cells were stimulated with ionomycin and PMA without the presence of BFA. The media were collected for ELISA assay.
Immunohistochemistry (IHC) and Immunofluorescence (IF) analysis of tumor organoids: Tumor organoids were gently centrifuged at 100 rcf from organoid culture medium and then embedded in 2% agar. Tumor organoids were fixed in 4% paraformaldehyde solution for overnight at room temperature. The samples were replaced with 70% ethanol and later embedded in paraffin blocks. Paraffin sections were cut at 5 μm thickness, attached on slides, heated at 60° C. for 1 h and then overnight at 37° C. The slides were stained with hematoxylin and eosin (H&E). IHC staining follows the protocol described62. Mouse-specific antibodies for CD8α (Cell Signaling Technology, clone D4W2Z, 1:400 dilution), cleaved caspase3 (Cell Signaling Technology, clone D175, 1:400 dilution) and Ki67 (Cell Signaling Technology, clone D3B5, 1:400 dilution) were used for IHC staining. The DAB peroxidase substrate kit (Vector laboratories Inc.) was used to visualize the antibodies. For IF analysis, the sample slides were blocked 3% BSA for 40 min after hydration. The slides were stained with primary antibodies including EpCAM (Abcam, 1:400 dilution), FITC-conjugated anti-α-SMA (Genetex, 1:400 dilution) and AF594-conjugated anti-CD31 (Biolegend) for 1 h. For EpCAM staining, the slide was further stained with secondary antibody Alexa Fluor 647-conjugated anti-rabbit IgG (Biolegend, 1:200) for 40 min. The fluorescence images were captured under a Leica DM4B microscope.
Animal studies: All animal experiments were performed in accordance with the National Institutes of Health's Animal Use Guidelines and protocols approved by the Animal Care and Use Committee of Indiana University School of Medicine. To examine the tumorigenic potential of tumor organoids, tumor organoids with different sizes (diameter of 30-70, 70-150, and 150-500 μm) were orthotopically injected into fat pad of the 4th mammary gland in female C57BL/6 mice. Each mouse was injected with a total of 2×10^5 tumor cells. 5 mice were used in each group. Tumors were measured in two dimensions using a manual caliper. Tumor volume was calculated using the following formula: V=0.5×length×width×width. Tumor volume was measured every 3 days. Tumors were harvested 22 days after injection. The tumor growth, volume and weight were analyzed. To evaluate the anti-tumor effect of drugs in immunocompetent C57BL/6 mice and immunodeficient nude (NU/J) mice, 2×10^5 EO771 cells were orthotopically injected into fat pad of the 4th mammary gland in female mice. […]

[2] = test system: EO771 (Luc+OVA+) tumor organoids; assay: Intra-tumor infiltration of T cells in tumor organoids; format: cell-based, mouse; conditions: 48 h treatment, then co-culture with OT-I T cells
Description: To evaluate intra-tumor infiltration of T cells, EO771 (Luc+OVA+) tumor organoids were treated with indicated drugs for 48 h, and then co-cultured with OT-I T cells. After co-culture for 48 h, the organoids with T cells inside or attached were dissociated by TrypLE Express (Thermo Fisher) into single cells and stained with APC/Cy7-conjugated anti-mouse CD8 (Biolegend) and SYTOX Blue reagent for 15 min. The CD8+ T cell proportions from tumor organoids were analyzed by flow cytometry.

COc1ccccc1S(=O)(=O)Nc1ccc2c(c1)CN(C)C(=O)N2 [PFI-1]
anti-tumor effect in animal experiments [1]: no anti-tumor effect
CD8+ T cell infiltration in the tumor organoids [2]: poor T cell infiltration
